Inhibition data for 13 compounds are collected here from ChEMBL document CHEMBL5442219.

Molecules are shown by their SMILES.

Holding throughout (conditions): Compound concentration 10 µM
For assay [1], the target named is 5-hydroxytryptamine receptor 7 (Homo sapiens) (UniProt P34969).
Description: PDSP Primary Binding target: HTR7 - Compounds are tested at 10 uM concentration, plate are incubated at room temperature in the dark for 90 minutes. Reaction are stopped by vacuum filtration onto 0.3% polyethyleneimine soaked filter mats using Filtermate harvester. Scintilation cocktail is then melted onto microwave-dried filters on a hot plate and the radio activity is counted in Microbia counter.
The target in assay [2] is Delta-type opioid receptor (Homo sapiens) (UniProt P41143).
Description: PDSP Primary Binding target: OPRD1 - Compounds are tested at 10 uM concentration, plate are incubated at room temperature in the dark for 90 minutes. Reaction are stopped by vacuum filtration onto 0.3% polyethyleneimine soaked filter mats using Filtermate harvester. Scintilation cocktail is then melted onto microwave-dried filters on a hot plate and the radio activity is counted in Microbia counter.
Assay [3] concerns the target T1, Muscarinic acetylcholine receptor M4 (Homo sapiens) (UniProt P08173).
T1 sequence (whole entry): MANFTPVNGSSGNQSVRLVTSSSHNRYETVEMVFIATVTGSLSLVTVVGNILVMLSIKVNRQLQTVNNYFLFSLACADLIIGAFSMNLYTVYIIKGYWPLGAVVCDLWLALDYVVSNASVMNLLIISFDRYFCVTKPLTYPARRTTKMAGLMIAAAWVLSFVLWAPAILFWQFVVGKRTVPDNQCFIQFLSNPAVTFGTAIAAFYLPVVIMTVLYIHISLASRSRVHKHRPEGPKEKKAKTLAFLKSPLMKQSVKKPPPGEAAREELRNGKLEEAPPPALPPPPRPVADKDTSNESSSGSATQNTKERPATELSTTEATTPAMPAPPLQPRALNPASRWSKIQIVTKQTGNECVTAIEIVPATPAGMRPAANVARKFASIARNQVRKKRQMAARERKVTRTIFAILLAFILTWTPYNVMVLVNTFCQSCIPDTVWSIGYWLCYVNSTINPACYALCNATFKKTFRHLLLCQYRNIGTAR
Description: PDSP Primary Binding target: CHRM4 - Compounds are tested at 10 uM concentration, plate are incubated at room temperature in the dark for 90 minutes. Reaction are stopped by vacuum filtration onto 0.3% polyethyleneimine soaked filter mats using Filtermate harvester. Scintilation cocktail is then melted onto microwave-dried filters on a hot plate and the radio activity is counted in Microbia counter.

Assay [4] has as its target D(1B) dopamine receptor (Homo sapiens) (UniProt P21918).
Description: PDSP Primary Binding target: DRD5 - Compounds are tested at 10 uM concentration, plate are incubated at room temperature in the dark for 90 minutes. Reaction are stopped by vacuum filtration onto 0.3% polyethyleneimine soaked filter mats using Filtermate harvester. Scintilation cocktail is then melted onto microwave-dried filters on a hot plate and the radio activity is counted in Microbia counter.
Assay [5] addresses T2, 5-hydroxytryptamine receptor 2C (Homo sapiens) (UniProt P28335).
T2 sequence (whole entry): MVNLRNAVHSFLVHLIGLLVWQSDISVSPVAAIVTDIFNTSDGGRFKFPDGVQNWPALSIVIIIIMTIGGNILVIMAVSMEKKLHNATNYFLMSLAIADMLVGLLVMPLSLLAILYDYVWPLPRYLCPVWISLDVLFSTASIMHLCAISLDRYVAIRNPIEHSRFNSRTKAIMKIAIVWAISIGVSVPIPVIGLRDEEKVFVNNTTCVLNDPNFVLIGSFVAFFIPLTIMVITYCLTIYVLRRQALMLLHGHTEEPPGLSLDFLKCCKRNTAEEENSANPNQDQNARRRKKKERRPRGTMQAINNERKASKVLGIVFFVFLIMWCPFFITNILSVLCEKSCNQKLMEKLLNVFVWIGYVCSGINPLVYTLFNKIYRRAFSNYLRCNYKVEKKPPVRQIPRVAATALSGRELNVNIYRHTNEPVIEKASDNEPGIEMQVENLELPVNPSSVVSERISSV
Description: PDSP Primary Binding target: HTR2C - Compounds are tested at 10 uM concentration, plate are incubated at room temperature in the dark for 90 minutes. Reaction are stopped by vacuum filtration onto 0.3% polyethyleneimine soaked filter mats using Filtermate harvester. Scintilation cocktail is then melted onto microwave-dried filters on a hot plate and the radio activity is counted in Microbia counter.

Assay [6] has as its target 5-hydroxytryptamine receptor 2B (Homo sapiens) (UniProt P41595).
Description: PDSP Primary Binding target: HTR2B - Compounds are tested at 10 uM concentration, plate are incubated at room temperature in the dark for 90 minutes. Reaction are stopped by vacuum filtration onto 0.3% polyethyleneimine soaked filter mats using Filtermate harvester. Scintilation cocktail is then melted onto microwave-dried filters on a hot plate and the radio activity is counted in Microbia counter.
Assay [7] concerns the target T3, Alpha-2A adrenergic receptor (Homo sapiens) (UniProt P08913).
T3 sequence (whole entry): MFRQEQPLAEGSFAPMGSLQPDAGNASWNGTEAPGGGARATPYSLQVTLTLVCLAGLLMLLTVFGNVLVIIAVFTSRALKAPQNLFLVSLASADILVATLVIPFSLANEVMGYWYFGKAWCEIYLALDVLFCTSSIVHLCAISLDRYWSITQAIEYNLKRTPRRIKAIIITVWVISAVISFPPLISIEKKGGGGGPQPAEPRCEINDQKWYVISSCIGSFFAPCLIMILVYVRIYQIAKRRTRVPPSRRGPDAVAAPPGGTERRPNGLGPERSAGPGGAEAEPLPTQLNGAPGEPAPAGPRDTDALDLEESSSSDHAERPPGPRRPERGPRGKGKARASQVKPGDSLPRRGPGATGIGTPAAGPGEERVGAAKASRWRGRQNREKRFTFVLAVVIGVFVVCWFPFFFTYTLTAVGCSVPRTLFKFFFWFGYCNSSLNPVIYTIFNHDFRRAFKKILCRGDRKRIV
Description: PDSP Primary Binding target: ADRA2A - Compounds are tested at 10 uM concentration, plate are incubated at room temperature in the dark for 90 minutes. Reaction are stopped by vacuum filtration onto 0.3% polyethyleneimine soaked filter mats using Filtermate harvester. Scintilation cocktail is then melted onto microwave-dried filters on a hot plate and the radio activity is counted in Microbia counter.

In assay [8] the target is Sigma non-opioid intracellular receptor 1 (Homo sapiens) (UniProt Q99720).
Sigma non-opioid intracellular receptor 1 (Homo sapiens), sequence (Q99720 whole entry): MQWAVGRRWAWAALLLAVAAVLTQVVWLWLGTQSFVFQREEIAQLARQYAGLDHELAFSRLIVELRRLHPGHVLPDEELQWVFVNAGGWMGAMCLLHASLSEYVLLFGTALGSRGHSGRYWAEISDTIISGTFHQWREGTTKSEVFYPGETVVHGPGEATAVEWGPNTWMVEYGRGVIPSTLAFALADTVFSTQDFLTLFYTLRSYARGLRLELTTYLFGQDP
Description: PDSP Primary Binding target: SIGMAR1 - Compounds are tested at 10 uM concentration, plate are incubated at room temperature in the dark for 90 minutes. Reaction are stopped by vacuum filtration onto 0.3% polyethyleneimine soaked filter mats using Filtermate harvester. Scintilation cocktail is then melted onto microwave-dried filters on a hot plate and the radio activity is counted in Microbia counter.
Assay [9] addresses Beta-2 adrenergic receptor (Homo sapiens) (UniProt P07550).
Description: PDSP Primary Binding target: ADRB2 - Compounds are tested at 10 uM concentration, plate are incubated at room temperature in the dark for 90 minutes. Reaction are stopped by vacuum filtration onto 0.3% polyethyleneimine soaked filter mats using Filtermate harvester. Scintilation cocktail is then melted onto microwave-dried filters on a hot plate and the radio activity is counted in Microbia counter.
In assay [10] the target is D(3) dopamine receptor (Homo sapiens) (UniProt P35462).
D(3) dopamine receptor (Homo sapiens), sequence (P35462 whole entry): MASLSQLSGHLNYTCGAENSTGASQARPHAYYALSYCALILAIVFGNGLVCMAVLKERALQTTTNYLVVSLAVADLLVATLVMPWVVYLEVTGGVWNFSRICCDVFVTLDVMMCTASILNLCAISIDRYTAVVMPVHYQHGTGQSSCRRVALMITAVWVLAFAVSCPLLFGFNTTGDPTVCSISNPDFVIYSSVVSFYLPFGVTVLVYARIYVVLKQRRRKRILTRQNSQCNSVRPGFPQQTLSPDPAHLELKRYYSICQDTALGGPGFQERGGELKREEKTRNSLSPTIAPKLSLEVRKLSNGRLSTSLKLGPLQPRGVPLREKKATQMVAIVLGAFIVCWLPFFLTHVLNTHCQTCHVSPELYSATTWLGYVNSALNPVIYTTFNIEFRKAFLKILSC
Description: PDSP Primary Binding target: DRD3 - Compounds are tested at 10 uM concentration, plate are incubated at room temperature in the dark for 90 minutes. Reaction are stopped by vacuum filtration onto 0.3% polyethyleneimine soaked filter mats using Filtermate harvester. Scintilation cocktail is then melted onto microwave-dried filters on a hot plate and the radio activity is counted in Microbia counter.
In assay [11] the target is 5-hydroxytryptamine receptor 6 (Homo sapiens) (UniProt P50406).
5-hydroxytryptamine receptor 6 (Homo sapiens), sequence (P50406 whole entry): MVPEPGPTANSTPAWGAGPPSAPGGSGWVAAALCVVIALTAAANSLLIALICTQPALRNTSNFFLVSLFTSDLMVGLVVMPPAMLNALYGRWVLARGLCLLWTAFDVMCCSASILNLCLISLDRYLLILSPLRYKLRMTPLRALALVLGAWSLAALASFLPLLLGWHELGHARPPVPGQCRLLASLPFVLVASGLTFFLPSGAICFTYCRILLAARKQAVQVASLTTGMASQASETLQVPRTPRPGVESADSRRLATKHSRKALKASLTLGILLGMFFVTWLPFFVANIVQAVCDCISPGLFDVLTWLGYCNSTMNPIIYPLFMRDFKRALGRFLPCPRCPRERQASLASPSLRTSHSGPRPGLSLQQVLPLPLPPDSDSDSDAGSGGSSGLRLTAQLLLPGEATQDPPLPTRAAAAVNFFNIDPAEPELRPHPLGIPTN
Description: PDSP Primary Binding target: HTR6 - Compounds are tested at 10 uM concentration, plate are incubated at room temperature in the dark for 90 minutes. Reaction are stopped by vacuum filtration onto 0.3% polyethyleneimine soaked filter mats using Filtermate harvester. Scintilation cocktail is then melted onto microwave-dried filters on a hot plate and the radio activity is counted in Microbia counter.
Assay [12] concerns the target Kappa-type opioid receptor (Homo sapiens) (UniProt P41145).
Description: PDSP Primary Binding target: OPRK1 - Compounds are tested at 10 uM concentration, plate are incubated at room temperature in the dark for 90 minutes. Reaction are stopped by vacuum filtration onto 0.3% polyethyleneimine soaked filter mats using Filtermate harvester. Scintilation cocktail is then melted onto microwave-dried filters on a hot plate and the radio activity is counted in Microbia counter.
Assay [13] concerns the target T4, Muscarinic acetylcholine receptor M1 (Homo sapiens) (UniProt P11229).
T4 sequence (whole entry): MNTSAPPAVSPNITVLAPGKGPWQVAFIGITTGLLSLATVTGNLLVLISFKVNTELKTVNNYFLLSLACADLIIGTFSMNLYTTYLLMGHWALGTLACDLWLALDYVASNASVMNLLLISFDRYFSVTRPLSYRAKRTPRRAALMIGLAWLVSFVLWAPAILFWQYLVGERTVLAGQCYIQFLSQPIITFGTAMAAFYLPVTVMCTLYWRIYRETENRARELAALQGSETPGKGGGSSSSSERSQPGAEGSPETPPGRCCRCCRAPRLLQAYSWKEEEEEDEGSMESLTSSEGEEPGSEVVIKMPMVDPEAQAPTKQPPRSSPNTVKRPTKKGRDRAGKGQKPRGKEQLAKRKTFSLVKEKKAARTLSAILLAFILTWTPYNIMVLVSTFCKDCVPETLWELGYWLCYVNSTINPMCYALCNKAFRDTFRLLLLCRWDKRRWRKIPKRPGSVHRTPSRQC
Description: PDSP Primary Binding target: CHRM1 - Compounds are tested at 10 uM concentration, plate are incubated at room temperature in the dark for 90 minutes. Reaction are stopped by vacuum filtration onto 0.3% polyethyleneimine soaked filter mats using Filtermate harvester. Scintilation cocktail is then melted onto microwave-dried filters on a hot plate and the radio activity is counted in Microbia counter.

Kappa-type opioid receptor (Homo sapiens), sequence (P41145 whole entry): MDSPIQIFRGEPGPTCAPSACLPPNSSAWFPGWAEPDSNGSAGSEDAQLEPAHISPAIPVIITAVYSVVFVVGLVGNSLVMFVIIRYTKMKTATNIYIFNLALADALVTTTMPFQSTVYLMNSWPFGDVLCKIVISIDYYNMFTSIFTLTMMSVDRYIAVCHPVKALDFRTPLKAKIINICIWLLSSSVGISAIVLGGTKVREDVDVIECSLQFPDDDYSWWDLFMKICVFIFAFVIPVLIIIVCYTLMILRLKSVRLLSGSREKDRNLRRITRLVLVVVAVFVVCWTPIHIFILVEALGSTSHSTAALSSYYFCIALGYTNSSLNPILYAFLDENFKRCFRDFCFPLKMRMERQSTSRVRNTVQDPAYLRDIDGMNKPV
Delta-type opioid receptor (Homo sapiens), sequence (P41143 whole entry): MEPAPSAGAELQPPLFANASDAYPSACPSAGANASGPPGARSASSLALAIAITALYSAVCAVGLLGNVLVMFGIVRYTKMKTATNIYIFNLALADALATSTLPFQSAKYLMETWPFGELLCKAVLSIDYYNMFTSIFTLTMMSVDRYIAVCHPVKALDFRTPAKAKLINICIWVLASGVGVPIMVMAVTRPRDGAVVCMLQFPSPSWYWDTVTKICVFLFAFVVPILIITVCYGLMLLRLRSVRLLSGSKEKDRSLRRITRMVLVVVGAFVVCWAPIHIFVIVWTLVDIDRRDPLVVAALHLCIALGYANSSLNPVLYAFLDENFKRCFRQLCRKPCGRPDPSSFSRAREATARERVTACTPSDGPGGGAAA
Beta-2 adrenergic receptor (Homo sapiens), sequence (P07550 whole entry, looked up): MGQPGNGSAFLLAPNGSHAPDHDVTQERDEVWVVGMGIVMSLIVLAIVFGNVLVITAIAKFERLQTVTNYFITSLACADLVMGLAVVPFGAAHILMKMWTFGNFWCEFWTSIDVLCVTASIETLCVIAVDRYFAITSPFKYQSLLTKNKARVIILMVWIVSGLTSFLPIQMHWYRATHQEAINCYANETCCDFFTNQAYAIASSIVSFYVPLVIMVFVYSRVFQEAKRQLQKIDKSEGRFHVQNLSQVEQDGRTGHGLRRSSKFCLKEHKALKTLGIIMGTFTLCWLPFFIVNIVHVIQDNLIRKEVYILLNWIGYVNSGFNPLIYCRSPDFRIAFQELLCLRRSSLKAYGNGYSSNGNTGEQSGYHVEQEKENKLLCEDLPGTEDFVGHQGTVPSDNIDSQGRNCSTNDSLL
5-hydroxytryptamine receptor 2B (Homo sapiens), sequence (P41595 whole entry): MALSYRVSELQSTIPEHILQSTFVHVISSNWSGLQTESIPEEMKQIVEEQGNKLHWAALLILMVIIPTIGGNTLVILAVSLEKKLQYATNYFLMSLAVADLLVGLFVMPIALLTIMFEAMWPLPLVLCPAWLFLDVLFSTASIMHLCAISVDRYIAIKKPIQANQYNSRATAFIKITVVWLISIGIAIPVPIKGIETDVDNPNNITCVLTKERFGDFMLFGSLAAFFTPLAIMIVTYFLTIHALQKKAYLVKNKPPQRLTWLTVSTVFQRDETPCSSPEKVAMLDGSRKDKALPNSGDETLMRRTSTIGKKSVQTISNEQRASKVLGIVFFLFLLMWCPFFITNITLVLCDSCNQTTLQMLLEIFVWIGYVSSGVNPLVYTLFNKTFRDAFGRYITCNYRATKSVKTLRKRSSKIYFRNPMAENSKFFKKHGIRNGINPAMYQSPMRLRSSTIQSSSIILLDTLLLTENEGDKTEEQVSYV
5-hydroxytryptamine receptor 7 (Homo sapiens), sequence (P34969 whole entry): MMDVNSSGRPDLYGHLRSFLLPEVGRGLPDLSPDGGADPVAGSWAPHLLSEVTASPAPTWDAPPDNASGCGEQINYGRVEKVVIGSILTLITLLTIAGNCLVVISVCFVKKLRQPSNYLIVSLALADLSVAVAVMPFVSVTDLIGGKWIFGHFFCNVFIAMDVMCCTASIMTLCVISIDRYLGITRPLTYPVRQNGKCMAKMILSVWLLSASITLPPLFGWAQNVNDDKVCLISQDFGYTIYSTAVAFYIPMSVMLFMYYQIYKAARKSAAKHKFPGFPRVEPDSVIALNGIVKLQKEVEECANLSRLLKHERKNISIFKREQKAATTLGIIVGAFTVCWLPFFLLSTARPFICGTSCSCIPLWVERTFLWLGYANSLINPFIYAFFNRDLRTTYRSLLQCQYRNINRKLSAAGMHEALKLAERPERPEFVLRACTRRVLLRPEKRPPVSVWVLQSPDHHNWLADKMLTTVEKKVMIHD
D(1B) dopamine receptor (Homo sapiens), sequence (P21918 whole entry): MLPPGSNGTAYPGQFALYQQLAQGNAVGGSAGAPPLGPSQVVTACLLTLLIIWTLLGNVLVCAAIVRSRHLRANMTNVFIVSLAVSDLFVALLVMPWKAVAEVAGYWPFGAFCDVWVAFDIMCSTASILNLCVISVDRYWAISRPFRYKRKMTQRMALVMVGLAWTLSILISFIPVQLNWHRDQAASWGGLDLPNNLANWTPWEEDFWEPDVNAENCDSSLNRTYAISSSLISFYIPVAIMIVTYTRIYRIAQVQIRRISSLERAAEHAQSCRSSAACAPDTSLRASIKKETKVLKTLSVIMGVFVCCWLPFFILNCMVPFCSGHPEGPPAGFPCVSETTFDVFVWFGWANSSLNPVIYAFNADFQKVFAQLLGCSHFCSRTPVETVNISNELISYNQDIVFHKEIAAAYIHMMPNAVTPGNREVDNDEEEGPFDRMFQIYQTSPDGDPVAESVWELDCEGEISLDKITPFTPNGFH

As to `Cc1cccc(NC(=O)N[C@@H]2N=C(c3ccccc3)c3ccccc3N(C)C2=O)c1`, the inhibition (commonly the drop in the measured response relative to a control, in per cent) in [1] was 3.26%; in assay [2] it was 8.95%; in assay [3], -5.23%; in assay [4] it was 0.34%; in [5], -0.72%; in [6] it was 63%. Also, the inhibition in assay [7] is 13.9%; in assay [8], 20.8%; in assay [9], -4.38%; in [10], 0.6%; in [11], 6.3%; in assay [12], 22.5%.
In the case of `COc1ccc(C2(O)OC(=O)C(c3ccc4c(c3)OCO4)=C2Cc2cc(OC)c(OC)c(OC)c2)cc1` (centres undefined), the inhibition in assay [1] was 12%; in assay [3] it was 1.32%; in [7], 4.57%; in [8], 6.35%; in assay [13], -8.77%; in assay [10] it was -2.35%. The values for the inhibition in assay [11] and in assay [12] were -2.9% and 9.13%, respectively.
As to `CSc1ccc(C(=O)N[C@@H]2CCCC[C@@H]2NC(=O)CNC(=O)c2cc(C(F)(F)F)ccc2NC(=O)NC(C)C)cc1`, the inhibition is 2.72% in assay [1]; 4.07% in [2]; 6.91% in [3]; 33.2% in [5]; 27.9% in assay [6]; -2.26% in assay [7]. For the same compound, the inhibition is 22.2% in [8]; 28.4% in assay [13]; 6.71% in assay [9]; 86.6% in assay [10]; 15.3% in [12].
For `CC(C)NCC(O)COc1cccc2ccccc12` (centres undefined), the inhibition is 13.3% in assay [1]; 7.31% in [2]; -3.37% in assay [3]; 10.2% in assay [4]; 68% in assay [5]; 86.3% in assay [6]. Besides, the inhibition in assay [7] was 16.4%; in assay [8], 54.7%; in [10], 23.3%; in assay [11], 74.2%; in assay [12] it was 16.1%.
As to `COc1ccccc1CN[C@H]1C2CCN(CC2)[C@H]1C(c1ccccc1)c1ccccc1`, the inhibition in assay [1] is -6.37%; in assay [3], -4.3%; in [5], -3.39%; in assay [6] it was 0.68%; in assay [7] it was 11.1%; in assay [8], 48.5%. Moreover, the inhibition is 43% in [10], 8.17% in assay [11] and 49.1% in assay [12].
Consider `COc1cc2c(CCNC(C)=O)c[nH]c2cc1Cl`, for which the inhibition is -0.31% in assay [1]; -3.58% in assay [2]; 18.8% in assay [5]; 57.2% in assay [6]; 13.4% in assay [7]; 5.27% in assay [8]. Moreover, the results for the inhibition in assay [13], in assay [9] and in assay [12] were -4.88%, 3.89% and -6.29%, respectively.
In the case of `CN(C)C(=O)C(CCN1CCC(O)(c2ccc(Cl)cc2)CC1)(c1ccccc1)c1ccccc1`, the inhibition was 20.8% in assay [1]; 91.5% in [2]; -6.62% in assay [3]; 1.53% in assay [4]; 0.09% in [5]; 83.3% in [6]. Moreover, the inhibition in assay [7] was 47.1%; in assay [8] it was 87.2%; in assay [9], 44.6%; in [10], 42.1%; in assay [11], 14.9%.
For the compound `CN1CC(=O)N=C1NC(=O)Nc1cccc(Cl)c1`, the inhibition in assay [1] was 0.17%; in assay [2], -3.44%; in assay [3], -2.92%; in [4] it was 18.3%; in assay [5], 5.25%; in assay [6], 48.7%. The inhibition in assay [7] is 3.42%; in [8], 3.26%; in [9], -8.89%; in [10], -3.16%; in [11], -0.6%; in assay [12] it was 2.28%.
As for `C/C(=N\NC(=O)[C@@H]1C(=O)NC[C@H]1c1ccccc1)c1cccc(Br)c1`, the inhibition in [1] was 8.23%; in [4], -9.13%; in [5], 33.4%; in assay [6], 14.3%; in assay [8], 21.3%; in assay [13], -1.51%. For the same compound, the inhibition in assay [9] was -2.57%; in assay [11], 7.94%; in assay [12], 19.1%.
Turning to `OC1(c2ccc(Cl)cc2)CCN(Cc2c[nH]c3ccccc23)CC1`, the inhibition is 10.4% in assay [1]; 3.7% in assay [2]; -10% in [3]; 40.1% in [4]; 18.8% in [5]; 73.8% in assay [6]. Moreover, the inhibition in assay [7] is 76.1%; in assay [8], 2.38%; in [9], -1.99%; in assay [10], 88.8%; in [11] it was -7.57%; in assay [12], 3.1%.
On to `CC(C)NCC(O)c1ccc(N)c(C#N)c1` (centres undefined), for which the inhibition in [1] was 20.1%; in [5], -7.04%; in assay [7], -5.25%; in assay [8], 22.7%; in assay [13], -2.53%; in [9], 95.5%. Moreover, the inhibition in assay [10] was -2.07%; in assay [11], 18%; in [12] it was 9.69%.
On to `CCCCN(CCCC)C(=O)CN1C[C@@H](c2ccc3c(c2)OCO3)[C@H](C(=O)O)[C@H]1c1ccc(OC)cc1`, for which the inhibition in [1] was -7.92%; in assay [2] it was -0.59%; in [3], 7.9%; in [6], -9.25%; in [7], 0.09%; in [8], 59.9%. Moreover, the inhibition in assay [13] is -7.47%; in assay [10], 28.4%; in assay [12] it was 27.6%.
`S=C(NCCCc1c[nH]cn1)NCCCN(Cc1ccc(Cl)c(Cl)c1)c1ccc(Br)cn1`: the inhibition is 74.9% in assay [1]; 27% in assay [2]; 51.4% in assay [4]; 100% in [5]; 94.5% in assay [6]; 97.5% in assay [7]. Moreover, the inhibition was 1.54% in assay [8]; 60.7% in assay [13]; 40% in [9]; 62.3% in assay [10]; 74% in assay [11]; 64.9% in [12].
